Test results from patent publication US20240158446A1, “CYCLIC COMPOUND HAVING SELECTIVE INHIBITORY ACTION ON KRAS OVER HRAS AND NRAS” (CHUGAI SEIYAKU KABUSHIKI KAISHA, priority 2021, published 2024).
Like-named read-outs stand apart in the source and are kept apart here. *1 amine or outer side, *2 acyl side, *3 side chain or, on linkers, in order; H or OH if unused. Where a SMILES comes first, the peptide text is derived from it. Bridges are numbered along the chain shown (N, C = ends). [ ]: non-standard residue; d: D form. The star is where a group is joined. hPhe(3-Cl-4-CF3) = N[C@@H](CCc1ccc(C(F)(F)F)c(Cl)c1)C(=O)O; NPrPhe(4-CF3) = CCCN[C@@H](Cc1ccc(C(F)(F)F)cc1)C(=O)O; NEtPhe(4-Me) = CCN[C@@H](Cc1ccc(C)cc1)C(=O)O; NMeAbu(4,4,4-F3) = CN[C@@H](CC(F)(F)F)C(=O)O; NMeGly(cPent) = CN[C@H](C(=O)O)C1CCCC1; Pro(4,4-F2) = O=C(O)[C@@H]1CC(F)(F)CN1; cisHyp = O=C(O)[C@@H]1C[C@H](O)CN1; NMeD = CN[C@@H](CC(=O)O)C(=O)O; NMeL = CN[C@@H](CC(C)C)C(=O)O; X50 = O=C(CN(CCF)[*:1])[*:2]; NMeAbu = CC[C@H](NC)C(=O)O; Morpholide = C1CN(*)CCO1; NMeA = CN[C@@H](C)C(=O)O; Ac5c = NC1(C(=O)O)CCCC1; Aze = O=C(O)[C@@H]1CCN1; Sar = CNCC(=O)O

Experiments:
[1] = biological target: GDP-bound HRAS wild-type protein (Homo sapiens, UniProt P01112); experiment: Binding to HRAS by surface plasmon resonance (SPR), Single Cycle Kinetics; conditions: for HRAS/KRAS (ratio of KD value with respect to GDP-bound HRAS wild-type protein to KD value with respect to KRAS): SPR KD ratio HRAS/KRAS, class symbols
Chain of GDP-bound HRAS wild-type protein (P01112 whole entry): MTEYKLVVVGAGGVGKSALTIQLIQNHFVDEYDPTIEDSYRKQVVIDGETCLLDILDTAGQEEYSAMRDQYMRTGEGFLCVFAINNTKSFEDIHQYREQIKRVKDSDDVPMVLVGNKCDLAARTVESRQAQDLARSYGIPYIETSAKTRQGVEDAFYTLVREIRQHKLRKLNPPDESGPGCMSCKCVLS

[2] = biological target: GDP-bound KRAS wild-type protein (Homo sapiens, UniProt P01116); experiment: Binding to KRAS by surface plasmon resonance (SPR), Single Cycle Kinetics; conditions: GDP-bound KRAS wild-type protein, read-out: KRAS KD
Chain of GDP-bound KRAS wild-type protein (P01116 whole entry): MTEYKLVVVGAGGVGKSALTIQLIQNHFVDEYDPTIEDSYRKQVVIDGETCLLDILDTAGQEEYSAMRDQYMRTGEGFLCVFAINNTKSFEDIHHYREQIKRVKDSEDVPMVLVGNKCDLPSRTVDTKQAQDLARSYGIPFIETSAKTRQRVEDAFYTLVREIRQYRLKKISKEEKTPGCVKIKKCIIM

[3] = biological target: GDP-bound NRAS wild-type protein (Homo sapiens, UniProt P01111); experiment: Binding to NRAS by surface plasmon resonance (SPR), Single Cycle Kinetics; conditions: for NRAS/KRAS (ratio of KD value with respect to GDP-bound NRAS wild-type protein to KD value with respect to KRAS): SPR KD ratio NRAS/KRAS, class symbols
Chain of GDP-bound NRAS wild-type protein (P01111 whole entry): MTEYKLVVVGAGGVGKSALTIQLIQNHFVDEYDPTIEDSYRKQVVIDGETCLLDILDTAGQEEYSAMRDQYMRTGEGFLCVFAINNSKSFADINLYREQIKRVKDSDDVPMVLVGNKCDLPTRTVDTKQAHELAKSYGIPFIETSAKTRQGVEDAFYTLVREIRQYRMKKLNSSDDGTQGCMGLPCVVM

[4] = SPR, GDP-bound HRAS wild-type protein vs GDP-bound KRAS wild-type protein
[5] = SPR Single Cycle Kinetics, 1:1 binding model
[6] = SPR, GDP-bound NRAS wild-type protein vs GDP-bound KRAS wild-type protein

Kd [2, 5]	Kd ([2]; SPR, Single Cycle Kinetics)	Structure (SMILES)	HRAS/KRAS (ratio of KD value for HRAS to KD value for KRAS) [1, 4]	NRAS/KRAS (ratio of KD value for NRAS to KD value for KRAS) [3, 6]	HRAS/KRAS (ratio of KD value with respect to GDP-bound HRAS wild-type protein to KD value with respect to KRAS) [1]	NRAS/KRAS (ratio of KD value with respect to GDP-bound NRAS wild-type protein to KD value with respect to KRAS) [3]	HRAS/KRAS (ratio of KD value with respect to HRAS to KD value with respect to KRAS) [1, 4]	NRAS/KRAS (ratio of KD value with respect to NRAS to KD value with respect to KRAS) [3, 6]
0.09 nM		CCCN1C(=O)[C@@H]2CCN2C(=O)[C@H](C)N(C)C(=O)[C@H]([C@@H](C)CC)NC(=O)[C@H](CC)N(C)C(=O)C[C@@H](C(=O)N2CCOCC2)N(C)C(=O)[C@H](C2CCCC2)N(C)C(=O)C2(CCCC2)NC(=O)[C@@H]2CCCN2C(=O)[C@H](CCc2ccc(C(F)(F)F)c(Cl)c2)NC(=O)CN(C)C(=O)[C@@H]1Cc1ccc(C(F)(F)F)cc1 [PP0194] ([NMeAbu]I[NMeA][Aze][NPrPhe(4-CF3)][Sar][hPhe(3-Cl-4-CF3)]P[Ac5c][NMeGly(cPent)][NMeD]-Morpholide; lactam N-11)	B (a compound having 3 or more and less than 10 is denoted as B)	C (A compound having a KD ratio of 0.1 or more and less than 3 is denoted as C)				
0.9 nM		CCC[C@H]1C(=O)N[C@@H]([C@@H](C)CC)C(=O)N(C)CC(=O)N(C)[C@H]2C/C=C\CCN(C2=O)[C@@H](Cc2ccc(C(F)(F)F)cc2)C(=O)N(C)CC(=O)N[C@@H](CCc2ccc(C(F)(F)F)c(OC)c2)C(=O)N2C[C@H](OCC)C[C@H]2C(=O)NC2(CC(C)(C)C2)C(=O)N(C)[C@@H](CC2CC2)C(=O)N(C)[C@H](C(=O)N(C)C)CC(=O)N1C [PP2809]			A (a compound having 10 or more and less than 20 is denoted as A)	A (a compound having 10 or more and less than 20 is denoted as A)		
0.31 nM		CCCN1C(=O)CN(C)C(=O)CN(C)C(=O)[C@H]([C@@H](C)CC)NC(=O)[C@H](CC(C)C)N(C)C(=O)C[C@@H](C(=O)N2CCOCC2)N(C)C(=O)[C@H](C2CCCC2)N(C)C(=O)C2(CCCC2)NC(=O)[C@@H]2C[C@H](OCC)CN2C(=O)[C@H](CCc2ccc(C(F)(F)F)c(Cl)c2)NC(=O)CN(C)C(=O)[C@@H]1Cc1ccc(C(F)(F)F)cc1 [PP0243] ([NMeL]I[Sar][Sar][NPrPhe(4-CF3)][Sar][hPhe(3-Cl-4-CF3)][cisHyp](Et)[Ac5c][NMeGly(cPent)][NMeD]-Morpholide; lactam N-11)	C (A compound having a KD ratio of 0.1 or more and less than 3 is denoted as C)	B (a compound having 3 or more and less than 10 is denoted as B)				
	0.43 nM	CCO[C@@H]1C[C@H]2C(=O)NC3(CCC3)C(=O)N(C)[C@@H](C3CCCC3)C(=O)N(C)[C@H](C(=O)N(C)C)CC(=O)N(C)[C@@H](CC)C(=O)N[C@@H]([C@@H](C)CC)C(=O)N(C)CC(=O)N(C)[C@H]3CC(C)=CCN(C3=O)[C@@H](Cc3ccc(C(F)(F)F)cc3)C(=O)N(C)CC(=O)N[C@@H](CCc3cc(F)c(C(F)(F)F)c(F)c3)C(=O)N2C1 [PP1034]	C (A compound having a KD ratio of 0.1 or more and less than 3 is denoted as C)	C (A compound having a KD ratio of 0.1 or more and less than 3 is denoted as C)				
0.37 nM		CC[C@H](C)[C@@H]1NC(=O)[C@H](CC(F)(F)F)N(C)C(=O)C[C@@H](C(=O)N2CCOCC2)N(C)C(=O)[C@H](C2CCCC2)N(C)C(=O)C2(CCCC2)NC(=O)[C@@H]2CCCN2C(=O)[C@H](CCc2ccc(C(F)(F)F)c(Cl)c2)NC(=O)CN(C)C(=O)[C@H](Cc2ccc(C)cc2)N(CC)C(=O)CN(C)C(=O)CN(C)C1=O [PP0032] ([NMeAbu(4,4,4-F3)]I[Sar][Sar][NEtPhe(4-Me)][Sar][hPhe(3-Cl-4-CF3)]P[Ac5c][NMeGly(cPent)][NMeD]-Morpholide; lactam N-11)	C (A compound having a KD ratio of 0.1 or more and less than 3 is denoted as C)	C (A compound having a KD ratio of 0.1 or more and less than 3 is denoted as C)				
0.52 nM		CCCN1C(=O)CN(C)C(=O)CN(CCF)C(=O)[C@H]([C@@H](C)CC)NC(=O)[C@H](CC(C)C)N(C)C(=O)C[C@@H](C(=O)N2CCOCC2)N(C)C(=O)[C@H](C2CCCC2)N(C)C(=O)C2(CCCC2)NC(=O)[C@@H]2CCCN2C(=O)[C@H](CCc2ccc(C(F)(F)F)c(Cl)c2)NC(=O)CN(C)C(=O)[C@@H]1Cc1ccc(C(F)(F)F)cc1 [PP0751] ([NMeL]I[X50][Sar][NPrPhe(4-CF3)][Sar][hPhe(3-Cl-4-CF3)]P[Ac5c][NMeGly(cPent)][NMeD]-Morpholide; lactam N-11)					C (A compound having a KD ratio of 0.1 or more and less than 3 is denoted as C)	B (a compound having 3 or more and less than 10 is denoted as B)
0.82 nM		CCC[C@H]1C(=O)N[C@@H]([C@@H](C)CC)C(=O)N(C)CC(=O)N(C)[C@H]2C/C=C\CCN(C2=O)[C@@H](Cc2ccc(C(F)(F)F)cc2)C(=O)N(C)CC(=O)N[C@@H](CCc2ccc(Cl)c(Cl)c2)C(=O)N2C[C@H](OCC)C[C@H]2C(=O)NC2(CC(C)(C)C2)C(=O)N(C)[C@@H](CC2CC2)C(=O)N(C)[C@H](C(=O)N(C)C)CC(=O)N1C [PP2811]			A (a compound having 10 or more and less than 20 is denoted as A)	A (a compound having 10 or more and less than 20 is denoted as A)		
0.23 nM		CCO[C@@H]1C[C@H]2C(=O)NC3(CCC3)C(=O)N(C)[C@@H](C(CC)CC)C(=O)N(C)[C@H](C(=O)N3CCCC3)CC(=O)N(C)[C@H]3CCC/C=C/c4ccc(cc4)C[C@@H](C(=O)N(C)CC(=O)N[C@@H](CCc4cc(F)c(C(F)(F)F)c(F)c4)C(=O)N2C1)N1CC/C=C\C[C@@H](C1=O)N(C)C(=O)CN(C1CC1)C(=O)[C@H]([C@@H](C)CC)NC3=O [PP2957]			A (a compound having 10 or more and less than 20 is denoted as A)	AA (a compound having 20 or more is denoted as AA)		
	0.3 nM	CCC[C@H]1C(=O)N[C@@H]([C@@H](C)CC)C(=O)N(C)CC(=O)N(C)[C@H]2C/C=C\CCN(C2=O)[C@@H](Cc2ccc(C(F)(F)F)cc2)C(=O)N(C)CC(=O)N[C@@H](CCc2ccc(C(F)(F)F)c(Cl)c2)C(=O)N2C[C@H](OCC)C[C@H]2C(=O)NC2(CC(C)(C)C2)C(=O)N(C)[C@@H](CC(C)C)C(=O)N(C)[C@H](C(=O)N(C)C)CC(=O)N1C [PP2977]	A (a compound having 10 or more and less than 20 is denoted as A)	A (a compound having 10 or more and less than 20 is denoted as A)				
0.073 nM		CCCN1C(=O)[C@@H]2CCN2C(=O)[C@H](C)N(C)C(=O)[C@H]([C@@H](C)CC)NC(=O)[C@H](CC(C)C)N(C)C(=O)C[C@@H](C(=O)N(C)C)N(C)C(=O)[C@H](C2CCCC2)N(C)C(=O)C2(CCCC2)NC(=O)[C@@H]2CCCN2C(=O)[C@H](CCc2ccc(C(F)(F)F)c(Cl)c2)NC(=O)CN(C)C(=O)[C@@H]1Cc1ccc(C(F)(F)F)cc1 [PP0178] ([NMeL]I[NMeA][Aze][NPrPhe(4-CF3)][Sar][hPhe(3-Cl-4-CF3)]P[Ac5c][NMeGly(cPent)][NMeD]-NMe2; lactam N-11)	B (a compound having 3 or more and less than 10 is denoted as B)	C (A compound having a KD ratio of 0.1 or more and less than 3 is denoted as C)				
	0.66 nM	CC[C@H](C)[C@@H]1NC(=O)[C@H](COC)N(C)C(=O)C[C@@H](C(=O)N2CCOCC2)N(C)C(=O)[C@H](C2CCCC2)N(C)C(=O)C2(CCC2)NC(=O)[C@@H]2CC(F)(F)CN2C(=O)[C@H](CCc2cc(F)c(C(F)(F)F)c(F)c2)NC(=O)CN(C)C(=O)[C@H](Cc2ccc(C(F)(F)F)cc2)N2CCCCC[C@@H](C2=O)N(C)C(=O)CNC1=O [PP0861]	B (a compound having 3 or more and less than 10 is denoted as B)	B (a compound having 3 or more and less than 10 is denoted as B)				
1 nM		CCCN1C(=O)CN(C)C(=O)CNC(=O)[C@H]([C@@H](C)CC)NC(=O)[C@H](CC(C)C)N(C)C(=O)C[C@@H](C(=O)N(C)C)NC(=O)[C@H](C2CCCC2)N(C)C(=O)C2(CCCC2)NC(=O)[C@@H]2CC(F)(F)CN2C(=O)[C@H](CCc2ccc(C(F)(F)F)c(Cl)c2)NC(=O)CN(C)C(=O)[C@@H]1Cc1ccc(C(F)(F)F)cc1 [PP0363] ([NMeL]IG[Sar][NPrPhe(4-CF3)][Sar][hPhe(3-Cl-4-CF3)][Pro(4,4-F2)][Ac5c][NMeGly(cPent)]D-NMe2; lactam N-11)	C (A compound having a KD ratio of 0.1 or more and less than 3 is denoted as C)	B (a compound having 3 or more and less than 10 is denoted as B)				
2.3 nM		CC[C@H](C)[C@@H]1NC(=O)[C@H](CC(C)C)N(C)C(=O)C[C@@H](C(=O)N2CCOCC2)N(C)C(=O)[C@H](CC(C)C)N(C)C(=O)C2(CCCC2)NC(=O)[C@@H]2CCCN2C(=O)[C@H](CCc2ccc(C(F)(F)F)c(Cl)c2)NC(=O)CN(C)C(=O)[C@H](Cc2ccc(C)cc2)N(CC)C(=O)CN(C)C(=O)CN(C)C1=O [PP0045] ([NMeL]I[Sar][Sar][NEtPhe(4-Me)][Sar][hPhe(3-Cl-4-CF3)]P[Ac5c][NMeL][NMeD]-Morpholide; lactam N-11)	C (A compound having a KD ratio of 0.1 or more and less than 3 is denoted as C)	C (A compound having a KD ratio of 0.1 or more and less than 3 is denoted as C)				
